# Experimental data taken from US20240100020A1, “MEDICINE FOR RELIEVING OR E[…] […] AND PREPARATION METHOD THEREFOR” (Shenzhen ScienCare Pharmaceutical Co., Ltd., priority 2020, published 2024).
# System: Rats
# Experiment: Addiction of tramadol and clonidine tablets and compound tablets (withdrawal after 30 days of administration)
# Settings: for Body weight loss / Number of jumps: within one week after withdrawal; for Number of jumps and body weight loss compared with the blank control group (in words): after 30 consecutive days of administration
# Procedure: Rats weighing approximately 150 g, half male and half female, were taken and randomly divided into 10 groups, that is, a blank control group, a morphine group, a tramadol group, a clonidine group, and compound tablet groups 1 to 6 (the rats in the compound tablet group 1 were administered with the compound tablets of Example 1, the rats in the compound tablet group 2 were administered with the compound tablets of Example 2, the rats in the compound tablet group 3 were administered with the compound tablets of Example 3, the rats in the compound tablet group 4 were administered with the compound tablets of Example 6, the rats in the compound tablet group 5 were administered with the compound tablets of Example 7, and the rats in the compound tablet group 6 were administered with the compound tablets of Example 10).
# The rats were administered 3 times a day for 30 days. Administration methods were as follows: (1) the blank control group: PO (oral administration); and 0 mg/kg/time; (2) the morphine group: ip (intraperitoneal injection); and 5 mg/kg/time in week 1, 10 mg/kg/time in week 2, 20 mg/kg/time in week 3, and 30 mg/kg/time from day 22 to day 30; (3) the tramadol group: PO; and 25 mg/kg/time in week 1, 50 mg/kg/time in week 2, 100 mg/kg/time in week 3, and 200 mg/kg/time from day 22 to day 30; (4) the clonidine group: PO; and 0.075 mg/kg/time in week 1, 0.15 mg/kg/time in week 2, 0.3 mg/kg/time in week 3, and 0.6 mg/kg/time from day 22 to day 30; (5) the compound tablet groups: PO; and 25 mg/kg/time in week 1, 50 mg/kg/time in week 2, 100 mg/kg/time in week 3, and 200 mg/kg/time from day 22 to day 30. Withdrawal symptoms and body weight changes within one week after withdrawal of the rats in each group were observed.
# [1] = PO 3 times a day for 30 days, 25/50/100/200 mg/kg/time rising by week
# [2] = ip 3 times a day for 30 days, 5/10/20/30 mg/kg/time rising by week
Compound,Body weight loss [1],Number of jumps [1],Number of jumps and body weight loss compared with the blank control group (in words),Body weight loss [2],Number of jumps [2]
"COc1cccc(C2(O)CCCCC2CN(C)C)c1 (stereo not drawn) [Tramadol group, tramadol]",9.6 ± 2.3 g,17.3 ± 1.9,extremely significant differences,–,–
"CN1CC[C@]23c4c5ccc(O)c4O[C@H]2[C@@H](O)C=C[C@H]3[C@H]1C5 [Morphine group, morphine]",–,–,extremely significant differences,10.1 ± 2.1 g,20.1 ± 2.1
